Laboratory results published in patent US5840684A, “Glycopeptide antibiotic derivatives” (Eli Lilly and Company, priority 1995, dated 1998).
Converted amounts (≈) assume the structure as drawn. Where two headings read alike, the source gives them in different places.

Key:
[1] = test system: Staphylococcus aureus S13E; type: cell-based
Experimental: (§1) The MIC's were determined using a standard broth micro-dilution assay.

[2] = test system: Staphylococcus aureus SA1199B; type: cell-based
Experimental: as §1

Streptococcus pneumoniae = assay: mouse protection, experimentally-induced infection; type: in vivo; conditions: mice infected with Streptococcus pneumoniae, two doses
[3] = test system: vancomycin-susceptible enterococci; assay: broth micro-dilution, mean geometric MIC; type: cell-based, Enterococcus faecium and Enterococcus faecalis; conditions: for mean geometric MIC, Vancomycin Sensitive Strains: enterococci, 24-hour incubation
Stapylococcus aureus = assay: mouse protection, experimentally-induced infection; type: in vivo; conditions: mice infected with Stapylococcus aureus, two doses
Lactobacillus confusus = assay: agar dilution MIC, lactic acid bacteria; type: cell-based
Pediococcus pentosaceus = assay: agar dilution MIC, lactic acid bacteria; type: cell-based
Leuconostoc citreum = assay: agar dilution MIC, lactic acid bacteria; type: cell-based
[4] = test system: Staphylococcus haemolyticus 105; assay: broth micro-dilution MIC; type: cell-based
Experimental: (§2) The formula I compounds have in vitro and in vivo activity against Gram-positive pathogenic bacteria. The MIC's were determined using a standard broth micro-dilution assay.

[5] = test system: Staphylococcus haemolyticus 415; assay: broth micro-dilution MIC; type: cell-based
Experimental: as §2

[6] = test system: Enterococcus gallinarum 245; assay: broth micro-dilution MIC; type: cell-based
Experimental: as §2

[7] = test system: Streptococcus pneumoniae P1; assay: broth micro-dilution MIC; type: cell-based
Experimental: as §2

[8] = test system: Staphylococcus epidermidis 270; assay: broth micro-dilution MIC; type: cell-based
Experimental: as §2

Escherichia coli EC14 = assay: broth micro-dilution MIC; type: cell-based
Experimental: as §2

Entercoccus faecium 180 = assay: broth micro-dilution MIC; type: cell-based
Experimental: as §2

Entercoccus faecium 2041 = assay: broth micro-dilution MIC; type: cell-based
Experimental: as §2

[9] = test system: Leuconostoc mesenteroides; assay: agar dilution MIC, lactic acid bacteria; type: cell-based
Streptococcus pyogenes = assay: mouse protection, experimentally-induced infection; type: in vivo; conditions: mice infected with Streptococcus pyogenes, two doses
[10] = test system: vancomycin-resistant enterococci; assay: broth micro-dilution, mean geometric MIC; type: cell-based, Enterococcus faecium and Enterococcus faecalis; conditions: for mean geometric MIC, Vancomycin Resistant Strains: enterococci, 24-hour incubation
Pediococcus acidilacti = assay: agar dilution MIC, lactic acid bacteria; type: cell-based
[11] = test system: Streptococcus pyogenes C203; assay: broth micro-dilution MIC; type: cell-based
Experimental: as §1

[12] = test system: Staphylococcus aureus X400; assay: broth micro-dilution MIC; type: cell-based
Experimental: as §1

[13] = test system: Entercoccus faecium 180-1; assay: broth micro-dilution MIC; type: cell-based
Experimental: as §1

[14] = test system: Staphylococcus aureus X778; assay: broth micro-dilution MIC; type: cell-based
Experimental: as §1

[15] = test system: Staphylococcus aureus 489; assay: broth micro-dilution MIC; type: cell-based
Experimental: as §1

Entercoccus faecium 276 = assay: broth micro-dilution MIC; type: cell-based
Experimental: as §1

[16] = test system: Staphylococcus aureus SA1199; assay: broth micro-dilution MIC; type: cell-based
Experimental: as §1

[17] = test system: Staphylococcus aureus 447; assay: broth micro-dilution MIC; type: cell-based
Experimental: as §1

[18] = test system: Staphylococcus aureus SA1199A; assay: broth micro-dilution MIC; type: cell-based
Experimental: as §1

[19] = test system: Staphylococcus aureus 446; assay: broth micro-dilution MIC; type: cell-based
Experimental: as §1

[20] = test system: Staphylococcus aureus 491; assay: broth micro-dilution MIC; type: cell-based
Experimental: as §1

Leuconostoc lactis = assay: agar dilution MIC, lactic acid bacteria; type: cell-based
[21] = test system: Leuconostoc pseudomesenteroides; assay: agar dilution MIC, lactic acid bacteria; type: cell-based
[22] = test system: Haemophilus influenzae RD; assay: broth micro-dilution MIC; type: cell-based; conditions: Haemophilus influenzae
Experimental: as §2

[23] = Lactobacillus confusus, brain-heart infusion agar
[24] = Pediococcus pentosaceus (mean of 2), brain-heart infusion agar
[25] = Leuconostoc mesenteroides (mean of 4), brain-heart infusion agar
[26] = Pediococcus acidilacti (mean of 10), brain-heart infusion agar
[27] = Leuconostoc lactis (mean of 2), brain-heart infusion agar

Structure (SMILES) | MIC [1] [µg/mL] | MIC [2] [µg/mL] | ED50 (Streptococcus pneumoniae) [mg/kg/2] | mean geometric MIC, Vancomycin Sensitive Strains [3] [µg/mL] | ED50 (Stapylococcus aureus) [mg/kg/2] | MIC (Lactobacillus confusus; [23]) [µg/mL] | MIC (Pediococcus pentosaceus; [24]) [µg/mL] | MIC (Leuconostoc citreum; brain-heart infusion agar) [µg/mL] | MIC [4] [µg/mL] | MIC [5] [µg/mL] | MIC [8] [µg/mL] | MIC (Entercoccus faecium 180; Entercoccus faecium 180) [µg/mL] | MIC (Entercoccus faecium 2041; Entercoccus faecium 2041) [µg/mL] | MIC [9, 25] [µg/mL] | ED50 (Streptococcus pyogenes) [mg/kg/2] | mean geometric MIC, Vancomycin Resistant Strains [10] [µg/mL] | MIC (Pediococcus acidilacti; [26]) [µg/mL] | MIC [13] [µg/mL] | MIC [14] [µg/mL] | MIC (Entercoccus faecium 276) [µg/mL] | also measured
CNC(CC(C)C)C(=O)NC1C(=O)NC(CC(N)=O)C(=O)NC2C(=O)NC3C(=O)NC(C(=O)NC(C(=O)O)c4cc(O)cc(O)c4-c4cc3ccc4O)C(OC3CC(C)(N)C(O)C(C)O3)c3ccc(c(Cl)c3)Oc3cc2cc(c3OC2OC(CO)C(O)C(O)C2OC2CC(C)(NCc3ccc(Oc4ccccc4)cc3)C(O)C(C)O2)Oc2ccc(cc2Cl)C1O (centres unmarked) [Compound 4, p-phenoxybenzyl·A82846B] | ≤ 0.06 | ≤ 0.06 | 0.036 | 0.062 | 0.36 | 32 (≈ 18 µM) | 16 (≈ 9.02 µM) | 128 (≈ 72.1 µM) | 0.5 (≈ 0.282 µM) | 0.5 (≈ 0.282 µM) | ≤ 0.06 | 0.125 (≈ 0.0704 µM) | ≤ 0.06 | 16 (≈ 9.02 µM) | 0.012 | 0.50 | 7.5 (≈ 4.23 µM) | ≤ 0.06 | ≤ 0.06 | ≤ 0.06 | MIC ([6]; Enterococcus gallinarum 245): ≤ 0.06 µg/mL; MIC [7]: ≤ 0.06 µg/mL; MIC (Escherichia coli EC14): > 64 µg/mL; MIC [11]: ≤ 0.06 µg/mL; MIC [12]: ≤ 0.06 µg/mL; MIC [15]: ≤ 0.06 µg/mL; MIC [16]: ≤ 0.06 µg/mL; MIC [17]: 0.25 µg/mL (≈ 0.141 µM); MIC [18]: ≤ 0.06 µg/mL; MIC [19]: ≤ 0.06 µg/mL; MIC [20]: ≤ 0.06 µg/mL; MIC (Leuconostoc lactis; [27]): 16 µg/mL (≈ 9.02 µM); MIC ([21]; brain-heart infusion agar): 32 µg/mL (≈ 18 µM)
CNC(CC(C)C)C(=O)NC1C(=O)NC(CC(N)=O)C(=O)NC2C(=O)NC3C(=O)NC(C(=O)NC(C(=O)O)c4cc(O)cc(O)c4-c4cc3ccc4O)C(OC3CC(C)(N)C(O)C(C)O3)c3ccc(c(Cl)c3)Oc3cc2cc(c3OC2OC(CO)C(O)C(O)C2OC2CC(C)(NCc3ccc(OCc4ccccc4)cc3)C(O)C(C)O2)Oc2ccc(cc2Cl)C1O (centres unmarked) [Compound 5] | 1 (≈ 0.559 µM) | ≤ 0.06 | 0.036 | 0.072 | 0.13 | 16 (≈ 8.95 µM) | 8.0 (≈ 4.47 µM) | 64 (≈ 35.8 µM) | 2 (≈ 1.12 µM) | 1 (≈ 0.559 µM) |  | ≤ 0.06 | ≤ 0.06 | 8 (≈ 4.47 µM) | 0.039 | 0.50 | 2.8 (≈ 1.57 µM) | ≤ 0.06 | 0.5 (≈ 0.28 µM) | ≤ 0.06 | MIC ([6]; Enterococcus gallinarum 245): ≤ 0.06 µg/mL; MIC [7]: ≤ 0.06 µg/mL; MIC (Escherichia coli EC14): > 64 µg/mL; MIC [11]: ≤ 0.06 µg/mL; MIC [16]: 1 µg/mL (≈ 0.559 µM); MIC [17]: 0.5 µg/mL (≈ 0.28 µM); MIC [18]: ≤ 0.06 µg/mL; MIC [19]: 1 µg/mL (≈ 0.559 µM); MIC [20]: 0.5 µg/mL (≈ 0.28 µM); MIC (Leuconostoc lactis; [27]): 8.0 µg/mL (≈ 4.47 µM); MIC ([21]; brain-heart infusion agar): 16 µg/mL (≈ 8.95 µM)
CNC(CC(C)C)C(=O)NC1C(=O)NC(CC(N)=O)C(=O)NC2C(=O)NC3C(=O)NC(C(=O)NC(C(=O)O)c4cc(O)cc(O)c4-c4cc3ccc4O)C(OC3CC(C)(N)C(O)C(C)O3)c3ccc(c(Cl)c3)Oc3cc2cc(c3OC2OC(CO)C(O)C(O)C2OC2CC(C)(NCc3ccc(C=Cc4ccccc4)cc3)C(O)C(C)O2)Oc2ccc(cc2Cl)C1O (centres unmarked) [Compound 29] | 1 (≈ 0.56 µM) | 0.25 (≈ 0.14 µM) | 0.054 | 0.031 | 0.088 | 8 (≈ 4.48 µM) | 8.0 (≈ 4.48 µM) | 32 (≈ 17.9 µM) | 4 (≈ 2.24 µM) | 1 (≈ 0.56 µM) | 0.5 (≈ 0.28 µM) | 0.25 (≈ 0.14 µM) | 0.25 (≈ 0.14 µM) | 6.7 (≈ 3.75 µM) | 0.1 | 0.21 | 4.0 (≈ 2.24 µM) | ≤ 0.06 | ≤ 0.06 | 0.25 (≈ 0.14 µM) | MIC ([6]; Enterococcus gallinarum 245): 0.25 µg/mL (≈ 0.14 µM); MIC [12]: 0.25 µg/mL (≈ 0.14 µM); MIC [16]: 0.25 µg/mL (≈ 0.14 µM); MIC [17]: 0.25 µg/mL (≈ 0.14 µM); MIC [18]: ≤ 0.06 µg/mL; MIC [19]: 1 µg/mL (≈ 0.56 µM); MIC [20]: 0.25 µg/mL (≈ 0.14 µM); MIC (Leuconostoc lactis; [27]): 5.7 µg/mL (≈ 3.19 µM); MIC ([21]; brain-heart infusion agar): 16 µg/mL (≈ 8.97 µM)
CNC(CC(C)C)C(=O)NC1C(=O)NC(CC(N)=O)C(=O)NC2C(=O)NC3C(=O)NC(C(=O)NC(C(=O)O)c4cc(O)cc(O)c4-c4cc3ccc4O)C(OC3CC(C)(N)C(O)C(C)O3)c3ccc(c(Cl)c3)Oc3cc2cc(c3OC2OC(CO)C(O)C(O)C2OC2CC(C)(NCc3ccc(-c4ccc(-c5ccccc5)cc4)cc3)C(O)C(C)O2)Oc2ccc(cc2Cl)C1O (centres unmarked) [Compound 36] | 2 (≈ 1.09 µM) | 4 (≈ 2.18 µM) | 0.31 | 0.21 | 0.19 | 32 (≈ 17.4 µM) | 16 (≈ 8.72 µM) | 32 (≈ 17.4 µM) | 4 (≈ 2.18 µM) | 8 (≈ 4.36 µM) | 2 (≈ 1.09 µM) | 0.25 (≈ 0.136 µM) | 1 (≈ 0.545 µM) | 16 (≈ 8.72 µM) | 0.28 | 0.25 | 9.2 (≈ 5.01 µM) | ≤ 0.06 | 2 (≈ 1.09 µM) | 2 (≈ 1.09 µM) | MIC [12]: 4 µg/mL (≈ 2.18 µM); MIC [15]: 2 µg/mL (≈ 1.09 µM); MIC [16]: 4 µg/mL (≈ 2.18 µM); MIC [17]: 2 µg/mL (≈ 1.09 µM); MIC [19]: 8 µg/mL (≈ 4.36 µM); MIC [20]: 1 µg/mL (≈ 0.545 µM); MIC (Leuconostoc lactis; [27]): 16 µg/mL (≈ 8.72 µM); MIC ([21]; brain-heart infusion agar): 32 µg/mL (≈ 17.4 µM)
CN[C@H](CC(C)C)C(=O)N[C@H]1C(=O)N[C@@H](CC(N)=O)C(=O)N[C@H]2C(=O)N[C@H]3C(=O)N[C@H](C(=O)N[C@H](C(=O)O)c4cc(O)cc(O)c4-c4cc3ccc4O)[C@H](O)c3ccc(c(Cl)c3)Oc3cc2cc(c3O[C@@H]2O[C@H](CO)[C@@H](O)[C@H](O)[C@H]2O[C@H]2C[C@](C)(N)[C@H](O)[C@H](C)O2)Oc2ccc(cc2Cl)[C@H]1O [vancomycin, reference compound] |  |  | 1.1 |  | 1.2 |  |  |  | 16 (≈ 11 µM) | 8 (≈ 5.52 µM) | 16 (≈ 11 µM) |  |  |  | 0.8 |  |  |  |  |  | MIC ([3]; 24 h, read-out: mean geometric MIC, Vancomycin Sensitive Strains): 3.9 µg/mL (≈ 2.69 µM); MIC (Lactobacillus confusus; Weissella confusa): 1020 µg/mL (≈ 707 µM); MIC (Pediococcus pentosaceus; Pediococcus pentosaceus): 1020 µg/mL (≈ 707 µM); MIC (Leuconostoc citreum): > 1020 µg/mL; MIC ([6]; Enterococcus gallinarum, GALLINARUM): 4 µg/mL (≈ 2.76 µM); MIC [7]: 0.25 µg/mL (≈ 0.173 µM); MIC [22]: > 64 µg/mL; MIC (Escherichia coli EC14): > 64 µg/mL; MIC (Entercoccus faecium 180): > 64 µg/mL; MIC (Entercoccus faecium 2041): 2 µg/mL (≈ 1.38 µM); MIC ([9]; Leuconostoc mesenteroides): 1020 µg/mL (≈ 707 µM); MIC ([10]; 24 h, read-out: mean geometric MIC, Vancomycin Resistant Strains): 282 µg/mL (≈ 195 µM); MIC (Pediococcus acidilacti; Pediococcus): 891 µg/mL (≈ 615 µM); MIC [15]: 0.125 µg/mL (≈ 0.0863 µM); MIC [18]: 0.125 µg/mL (≈ 0.0863 µM); MIC (Leuconostoc lactis; Leuconostoc lactis): 1020 µg/mL (≈ 707 µM); MIC [21]: > 1020 µg/mL
